From the supplement of paper PMC10307832

Legend:
Assay in all cases: relative viability (nuclei count vs DMSO), 5 days (fraction); higher = more cells survive
[1] = compound: CC[C@H](Nc1ncnc2[nH]cnc12)c1nc2cccc(F)c2c(=O)n1-c1ccccc1 [Idelalisib] + Nc1ncn([C@H]2C[C@H](O)[C@@H](CO)O2)c(=O)n1 [Decitabine] (partner 2 µM)
Outline: (§1)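 Each reported value is a median over duplicate plates. It expresses relative viability: treated-well nuclei count divided by vehicle-well nuclei count. Lung cancer cell lines in 1536-well plates were dosed by pin tool a day after seeding, alone with one drug or with a fixed anchor-drug dose plus five library-drug doses (not always all listed) in √10 steps, and nuclei were counted after 5 days.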

[2] = compound: Nc1nc2[nH]cc(CCc3ccc(C(=O)N[C@@H](CCC(=O)O)C(=O)O)cc3)c2c(=O)[nH]1 [Pemetrexed] + Cc1cc(Nc2cc(N3CCN(C)CC3)nc(Sc3ccc(NC(=O)C4CC4)cc3)n2)n[nH]1 [Tozasertib] (partner 0.1 µM)
Outline: as §1

[3] = compound: CC[C@H](Nc1ncnc2[nH]cnc12)c1nc2cccc(F)c2c(=O)n1-c1ccccc1 [Idelalisib] + Cc1nc(Nc2ncc(C(=O)Nc3c(C)cccc3Cl)s2)cc(N2CCN(CCO)CC2)n1 [Dasatinib] (partner 0.075 µM)
Outline: as §1

[4] = compound: Nc1nc2[nH]cc(CCc3ccc(C(=O)N[C@@H](CCC(=O)O)C(=O)O)cc3)c2c(=O)[nH]1 [Pemetrexed] + CC(=O)Nc1cccc(-n2c(=O)n(C3CC3)c(=O)c3c(Nc4ccc(I)cc4F)n(C)c(=O)c(C)c32)c1 [Trametinib] (partner 0.02 µM)
Outline: as §1

Cell Line	relative viability ([1]; first compound 0.04 µM)	relative viability ([1]; first compound 0.1265 µM)	relative viability ([1]; first compound 0.4 µM)	relative viability ([1]; first compound 1.265 µM)	relative viability ([1]; first compound 4 µM)	relative viability ([2]; first compound 0.002 µM)	relative viability ([2]; first compound 0.006325 µM)	relative viability ([2]; first compound 0.02 µM)	relative viability ([2]; first compound 0.06325 µM)	relative viability ([2]; first compound 0.2 µM)	relative viability ([3]; first compound 0.04 µM)	relative viability ([3]; first compound 0.1265 µM)	relative viability ([3]; first compound 0.4 µM)	relative viability ([3]; first compound 1.265 µM)	relative viability ([3]; first compound 4 µM)	relative viability ([4]; first compound 0.002 µM)	relative viability ([4]; first compound 0.006325 µM)	relative viability ([4]; first compound 0.02 µM)	relative viability ([4]; first compound 0.06325 µM)	relative viability ([4]; first compound 0.2 µM)
HCC-366	0.348	0.395	0.309	0.372	0.299	0.0686	0.0859	0.205	0.126	0.124	0.679	0.705	0.433	0.62	0.601	0.39	0.311	0.406	0.341	0.302
BEN	0.736	0.649	0.757	0.775	0.694	0.547	0.423	0.57	0.548	0.457	0.305	0.318	0.32	0.364	0.31	1.19	0.942	1.08	0.884	1.05
NCI-H2347	0.612	0.589	0.752	0.621	0.512	0.337	0.516	0.595	0.589	0.356	0.416	0.346	0.25	0.292	0.325	0.282	0.376	0.246	0.287	0.28
LCLC-103H	0.693	0.707	0.692	0.795	0.679	0.451	0.366	0.515	0.443	0.443	0.371	0.388	0.393	0.535	0.309	0.659	0.639	0.734	0.698	0.677
